The subject of data set [1] is larvae of the mustard beetle (Phaedon cochleariae). In words: Phaedon test (PHAECO spray treatment). Format: in vivo. Particulars: 168 h, 100 g/ha, after 7 days, read-out: activity in %. The procedure: (§1) Solvents: 78.0 parts by weight of acetone • • 1.5 parts by weight of dimethylformamide
(§2) Emulsifier: 0.5 part by weight of alkylaryl polyglycol ether
(§3) An appropriate preparation of active compound is prepared by mixing 1 part by weight of active compound with the stated amounts of solvent and emulsifier and diluting the concentrate with emulsifier-containing water to the desired concentration.
After 7 days, the activity in % is ascertained. Here, 100% means that all of the beetle larvae have been killed; 0% means that no beetle larvae have been killed.

For data set [2], the system named is caterpillars of the armyworm (Spodoptera frugiperda). As to the kind of experiment: Spodoptera frugiperda test (SPODFR spray treatment). Format: in vivo. Particulars: 168 h, 100 g/ha, after 7 days, read-out: activity in %. The procedure: as §1, §2, §3
Leaf discs of maize (Zea mays) are sprayed with a preparation of active compound at the desired concentration and, after drying, are populated with caterpillars of the armyworm (Spodoptera frugiperda).
After 7 days, the activity in % is ascertained. Here, 100% means that all of the caterpillars have been killed; 0% means that no caterpillar has been killed.

A short description of data set [3]: log P determination by HPLC on reversed-phase columns (EEC Directive 79/831 Annex V.A8). The class given is physicochemical. Particulars: pH 2.7. The procedure:
Determination by LC-MS in the acidic range takes place at a pH of 2.7 using 0.1% aqueous formic acid and acetonitrile (containing 0.1% formic acid) as eluents, with a linear gradient from 10% acetonitrile to 95% acetonitrile.
Calibration was carried out using unbranched alkan-2-ones (having 3 to 16 carbon atoms) with known log P values (the log P values are determined from the retention times by linear interpolation between two successive alkanones).

Like-named read-outs stand apart in the source and are kept apart here.

Among the data in patent US8536202B2, “Triazole-substituted anthranilamides as pesticides” (Bayer Cropscience AG, priority 2010, dated 2013) are pest or weed control and chromatographic logP values, retold here.

As to `Cc1cc(Cl)cc(C(=O)NC(C)(C)C)c1NC(=O)c1cc(Cn2cc(-c3ccc(F)cc3)nn2)nn1-c1ncccc1Cl` [Example 45], the pest or weed control at 100 g/ha in data set [1] and in data set [2] was 100% each time. The molecule also yielded a chromatographic logP in data set [3] of 3.63.
Turning to `Cc1cc(C#N)cc(C(=O)NC(C)(C)C)c1NC(=O)c1cc(Cn2cc(-c3ccc(Cl)cc3Cl)nn2)nn1-c1ncccc1Cl` [Example 55], the pest or weed control at 100 g/ha in data set [1] and in data set [2] was 100% each time. Besides, in data set [3], the chromatographic logP was determined as 4.06.
As to `Cc1cc(C#N)cc(C(=O)NC(C)(C)C)c1NC(=O)c1cc(Cn2cc(-c3cccc(Cl)c3)nn2)nn1-c1ncccc1Cl` [Example 57], the values for the pest or weed control at 100 g/ha in data set [1] and in data set [2] were 100% and 83%, respectively. In data set [3], this molecule yielded a chromatographic logP of 3.55.
With `Cc1cc(C#N)cc(C(=O)NC(C)(C)C)c1NC(=O)c1cc(Cn2ncc(-c3ccc(F)cc3)n2)nn1-c1ncccc1Cl` [Example 61], the pest or weed control at 100 g/ha in data set [1] and in data set [2] was 100% throughout. Besides, in data set [3], the chromatographic logP came to 3.72.
On to `Cc1cc(C#N)cc(C(=O)NC(C)(C)C)c1NC(=O)c1cc(Cn2ncc(-c3ccc(Cl)cc3)n2)nn1-c1ncccc1Cl` [Example 62], for which the pest or weed control at 100 g/ha in data set [1] and in data set [2] was 100% throughout. In data set [3], the chromatographic logP stood at 4.06.
In the case of `Cc1cc(C#N)cc(C(=O)NC(C)(C)C)c1NC(=O)c1cc(Cn2ncc(-c3ccc(Cl)cc3Cl)n2)nn1-c1ncccc1Cl` [Example 63], the pest or weed control at 100 g/ha in data set [1] and in data set [2] was 100% throughout. This molecule also displayed a chromatographic logP in data set [3] of 4.67.
For the molecule `Cc1cc(C#N)cc(C(=O)NC(C)(C)C)c1NC(=O)c1cc(Cn2ncc(-c3ccccc3Cl)n2)nn1-c1ncccc1Cl` [Example 64], the pest or weed control at 100 g/ha in data set [1] and in data set [2] was 100% in each case. Besides, the chromatographic logP in data set [3] was determined as 4.03.
For the molecule `Cc1cc(C#N)cc(C(=O)NC(C)(C)C)c1NC(=O)c1cc(Cn2ncc(-c3cccc(Cl)c3)n2)nn1-c1ncccc1Cl` [Example 65], the pest or weed control at 100 g/ha in data set [1] and in data set [2] was 100% each time. For the same molecule, in data set [3], the chromatographic logP is 4.14.
Consider `CNC(=O)c1cc(Cl)cc(C)c1NC(=O)c1cc(Cn2nnc3cc([N+](=O)[O-])ccc32)nn1-c1ncccc1Cl` [Example 71], for which the pest or weed control at 100 g/ha in data set [1] and in data set [2] was 100% each time. Further, the chromatographic logP in data set [3] was 2.64.
Turning to `CNC(=O)c1cc(Cl)cc(C)c1NC(=O)c1cc(Cn2nc3ccc(Cl)cc3n2)nn1-c1ncccc1Cl` [Example 72], the pest or weed control at 100 g/ha in data set [1] and in data set [2] was 100% each time. In data set [3], this molecule showed a chromatographic logP of 3.28.
As for `CNC(=O)c1cc(Cl)cc(C)c1NC(=O)c1cc(Cn2nc3ccc(C(F)(F)F)cc3n2)nn1-c1ncccc1Cl` [Example 74], the pest or weed control at 100 g/ha in data set [1] and in data set [2] was 100% in each case. Moreover, the chromatographic logP in data set [3] was determined as 3.48.
For `CNC(=O)c1cc(Cl)cc(C)c1NC(=O)c1cc(Cn2nc3ccc([N+](=O)[O-])cc3n2)nn1-c1ncccc1Cl` [Example 75], the pest or weed control at 100 g/ha in data set [1] and in data set [2] was 100% each time. The chromatographic logP in data set [3] worked out at 2.95.
Take `CNC(=O)c1cc(Cl)cc(C)c1NC(=O)c1cc(Cn2nc3cc(Cl)c(Cl)cc3n2)nn1-c1ncccc1Cl` [Example 77]: the pest or weed control at 100 g/ha in data set [1] and in data set [2] was 100% throughout. In addition, the chromatographic logP in data set [3] is 3.73.
For the molecule `CNC(=O)c1cc(Cl)cc(C)c1NC(=O)c1cc(Cn2nc3ccc(F)cc3n2)nn1-c1ncccc1Cl` [Example 79], the pest or weed control at 100 g/ha in data set [1] and in data set [2] was 100% each time. This molecule yielded a chromatographic logP in data set [3] of 2.89.
For `CNC(=O)c1cc(C#N)cc(C)c1NC(=O)c1cc(Cn2nc3cc(Cl)c(Cl)cc3n2)nn1-c1ncccc1Cl` [Example 81], the pest or weed control at 100 g/ha in data set [1] and in data set [2] was 100% in each case. In data set [3], this molecule showed a chromatographic logP of 3.35.
Turning to `CNC(=O)c1cc(Cl)cc(C)c1NC(=O)c1cc(Cn2nnc3cc(Br)ccc32)nn1-c1ncccc1Cl` [Example 86], the pest or weed control at 100 g/ha in data set [1] and in data set [2] was 100% in each case. Besides, the chromatographic logP in data set [3] was 2.94.
Regarding `CNC(=O)c1cc(Cl)cc(C)c1NC(=O)c1cc(Cn2nc3ccc(Br)cc3n2)nn1-c1ncccc1Cl` [Example 87], the pest or weed control at 100 g/ha in data set [1] and in data set [2] was 100% in each case. Besides, in data set [3], the chromatographic logP was found to be 3.39.
For the molecule `CNC(=O)c1cc(Cl)cc(C)c1NC(=O)c1cc(Cn2nnc3c(Cl)c(Cl)c(Cl)cc32)nn1-c1ncccc1Cl` [Example 88], the pest or weed control at 100 g/ha in data set [1] and in data set [2] was 100% each time. This molecule also yielded a chromatographic logP in data set [3] of 3.75.
With `CNC(=O)c1cc(Cl)cc(C)c1NC(=O)c1cc(Cn2nnc3c(Cl)cc(C(F)(F)F)cc32)nn1-c1ncccc1Cl` [Example 89], the pest or weed control at 100 g/ha in data set [1] and in data set [2] was 100% each time. Moreover, the chromatographic logP in data set [3] turned out to be 3.59.
For `CNC(=O)c1cc(Cl)cc(C)c1NC(=O)c1cc(Cn2nnc3c(Br)cc(OC(F)(F)F)cc32)nn1-c1ncccc1Cl` [Example 90], the pest or weed control at 100 g/ha in data set [1] and in data set [2] was 100% throughout. The chromatographic logP in data set [3] was 3.74.
As for `CNC(=O)c1cc(Cl)cc(C)c1NC(=O)c1cc(Cn2nc3cc(OC(F)(F)F)cc(Br)c3n2)nn1-c1ncccc1Cl` [Example 91], the pest or weed control at 100 g/ha in data set [1] and in data set [2] was 100% each time. The molecule further returned a chromatographic logP in data set [3] of 4.17.
`CNC(=O)c1cc(C#N)cc(C)c1NC(=O)c1cc(Cn2nnc3c(Cl)c(Cl)c(Cl)c(Cl)c32)nn1-c1ncccc1Cl` [Example 92]: the pest or weed control at 100 g/ha in data set [1] and in data set [2] was 100% in each case. In addition, the chromatographic logP in data set [3] was 3.79.
As to `CNC(=O)c1cc(C#N)cc(C)c1NC(=O)c1cc(Cn2nnc3cc(Br)ccc32)nn1-c1ncccc1Cl` [Example 94], the pest or weed control at 100 g/ha in data set [1] and in data set [2] was 100% in each case. In addition, the chromatographic logP in data set [3] came to 2.66.
In the case of `CNC(=O)c1cc(C#N)cc(C)c1NC(=O)c1cc(Cn2nc3ccc(Br)cc3n2)nn1-c1ncccc1Cl` [Example 95], the pest or weed control at 100 g/ha in data set [1] and in data set [2] was 100% in each case. The same molecule had a chromatographic logP in data set [3] of 3.01.
Consider `CNC(=O)c1cc(C#N)cc(C)c1NC(=O)c1cc(Cn2nnc3c(Cl)c(Cl)c(Cl)cc32)nn1-c1ncccc1Cl` [Example 96], for which the pest or weed control at 100 g/ha in data set [1] and in data set [2] was 100% in each case. Also, the chromatographic logP in data set [3] is 3.42.
As to `CNC(=O)c1cc(C#N)cc(C)c1NC(=O)c1cc(Cn2nnc3cc(Br)c(C(F)(F)F)cc32)nn1-c1ncccc1Cl` [Example 97], the pest or weed control at 100 g/ha in data set [1] and in data set [2] was 100% each time. In data set [3], this molecule displayed a chromatographic logP of 3.27.
As to `CNC(=O)c1cc(C#N)cc(C)c1NC(=O)c1cc(Cn2nnc3c(Cl)cc(C(F)(F)F)cc32)nn1-c1ncccc1Cl` [Example 98], the pest or weed control at 100 g/ha in data set [1] and in data set [2] was 100% in each case. For the same molecule, in data set [3], the chromatographic logP was determined as 3.24.
For the molecule `CNC(=O)c1cc(C#N)cc(C)c1NC(=O)c1cc(Cn2nnc3c(Br)cc(OC(F)(F)F)cc32)nn1-c1ncccc1Cl` [Example 99], the pest or weed control at 100 g/ha in data set [1] and in data set [2] was 100% each time. In data set [3], this molecule registered a chromatographic logP of 3.37.
`CNC(=O)c1cc(C#N)cc(C)c1NC(=O)c1cc(Cn2nc3cc(OC(F)(F)F)cc(Br)c3n2)nn1-c1ncccc1Cl` [Example 100]: the pest or weed control at 100 g/ha in data set [1] and in data set [2] was 100% in each case. For the same molecule, in data set [3], the chromatographic logP worked out at 3.78.
As for `CNC(=O)c1cc(C#N)cc(C)c1NC(=O)c1cc(Cn2nc3ccc(C(F)(F)F)cc3n2)nn1-c1ncccc1Cl` [Example 102], the pest or weed control at 100 g/ha in data set [1] and in data set [2] was 100% throughout. This molecule also yielded a chromatographic logP in data set [3] of 3.19.
For `Cc1cc(C#N)cc(C(=O)NC(C)(C)C)c1NC(=O)c1cc(Cn2nc3ccc(Br)cc3n2)nn1-c1ncccc1Cl` [Example 107], the pest or weed control at 100 g/ha in data set [1] and in data set [2] was 100% each time. Further, in data set [3], the chromatographic logP came to 3.85.
Consider `Cc1cc(C#N)cc(C(=O)NC(C)(C)C)c1NC(=O)c1cc(Cn2nnc3c(Cl)c(Cl)c(Cl)cc32)nn1-c1ncccc1Cl` [Example 108], for which the pest or weed control at 100 g/ha in data set [1] and in data set [2] was 100% throughout. In addition, in data set [3], the chromatographic logP was 4.18.
For `Cc1cc(C#N)cc(C(=O)NC(C)(C)C)c1NC(=O)c1cc(Cn2nnc3cc(Br)c(C(F)(F)F)cc32)nn1-c1ncccc1Cl` [Example 109], the pest or weed control at 100 g/ha in data set [1] and in data set [2] was 100% throughout. The chromatographic logP in data set [3] (reversed-phase C18 HPLC column, HPLC on reversed-phase columns (C 18), EEC Directive 79/831 Annex V.A8, read-out: logP) is 4.02.
